One data set has as its system P-388 leukemia cells. The data set can be described thus: Antitumor activity against P-388 leukemia cells (i.p. implanted, i.v. drug). Format: in vivo, BDF1 mice. Particulars: Mus musculus, P388, iv, 720 h, read-out: T/C of MST; for response vs control in vivo at 80 mg/kg: dose f: 80 mg/kg/d × 3 (days 1, 5, 9); for response vs control in vivo at 20 mg/kg/day: dose b': 20 mg/kg/d × 2 (days 1, 5); for response vs control in vivo at 40 mg/kg/day: dose c': 40 mg/kg/d × 2 (days 1, 5). As to the method:
BDF1 mice were implanted intraperitoneally with P-388 leukemia cells at a rate of 1×10^6 cells/mouse, and each drug to be tested was administered intravenously on the first, fifth and ninth days, or on the first and fifth days after the implantation. […] The T/C (%) was calculated based on the following equation: [formula]
The drugs tested were as follows: solutions prepared by dissolving each of compound Nos. 34, 36 and 43 to 46 in physiological saline; suspension or solutions prepared by dissolving each of compound Nos. 35, 38 and 49 to 55 in dimethylacetamide, followed by adding thereto a small amount of a surface active agent (e.g., Tween-80) and then physiological saline; and suspension or solutions prepared by mixing each of the other compounds and a small amount of a surface active agent (e.g., Tween-80), followed by adding thereto physiological saline.

A short description of data set [1]: Acute toxicity (LD50, single intravenous administration). Further details: species or system day mice. Particulars: mouse, in vivo, mice, single i.v. From the text: In Table 15 are shown acute toxicity values (LD50, mg/kg) in day mice in the case of intravenously administering (once) each of the compounds of this invention in the form of preparations shown in the Preparation Examples shown in Table 16.

[2] abbreviates: i.v., dose b: 20 mg/kg/d × 3 (days 1, 5, 9), 30-day observation.
Setting [3] is: i.v., dose c: 40 mg/kg/d × 3 (days 1, 5, 9), 30-day observation.

By LD50 is commonly meant the dose expected to kill half of the subjects tested.

Structures can show the parent of a compound that is named as a salt. Where two headings read alike, the source gives them in different places.

Consider `CCOCCC(=O)Oc1c2cccc(OC3OC(C)C4OC(c5ccccc5)OC4C3OC3OC(C)C(N)C(OC)C3O)c2c2oc(=O)c3c(C)ccc4oc(=O)c1c2c43` (stereo not shown) [Compound 35], for which, in the data set with P-388 leukemia cells (setting [2]), the response vs control in vivo at 20 mg/kg stood at 188%. Also, the response vs control in vivo at 40 mg/kg with P-388 leukemia cells (setting [3]) is 244%. This compound came in with an LD50 in data set [1] (Preparation Example 6) not below 40 mg/kg.

In the case of `COC1C(O)C(C)OC(OC2C(Oc3cccc4c(OC(=O)c5ccco5)c5c(=O)oc6ccc(C)c7c(=O)oc(c34)c5c67)OC(C)C3OC(C)(C)OC32)C1O` (stereo not shown) [Compound 5], the response vs control in vivo at 80 mg/kg in the data set on P-388 leukemia cells (i.v., 30-day observation) is 217%. In data set [1] (Preparation Example 4), this compound had a 50% lethal dose (LD50) not below 80 mg/kg.

As to `COC1C(N)C(C)OC(OC2C(Oc3cccc4c(OC(=O)CCNC(=O)c5ccccc5)c5c(=O)oc6ccc(C)c7c(=O)oc(c34)c5c67)OC(C)C3OC(c4cccc(F)c4)OC32)C1O` (stereo not shown) [Compound 55], the response vs control in vivo at 80 mg/kg in the data set on P-388 leukemia cells (i.v., 30-day observation) was found to be 133%. In data set [1] (Preparation Example 6), this compound registered a 50% lethal dose (LD50) not below 80 mg/kg.

`COC1C(N)C(C)OC(OC2C(Oc3cccc4c(OC(=O)CCN5CCCC5)c5c(=O)oc6ccc(C)c7c(=O)oc(c34)c5c67)OC(C)C3OC(c4ccccc4)OC32)C1O` (stereo not drawn) [Compound 36, 6-O-(β-1-pyrrolidinylpropionyl)-3',4'-O-benzylidene-4"-epiamino-4"-deoxy-chartreusin dihydrochloride]: the response vs control in vivo at 20 mg/kg in the data set on P-388 leukemia cells (setting [2]) is 168%. For the same compound, the LD50 in data set [1] (Preparation Example 8) was not below 20 mg/kg.

In the case of `COC1C(O)C(C)OC(OC2C(Oc3cccc4c(OC(=O)C=Cc5c[nH]cn5)c5c(=O)oc6ccc(C)c7c(=O)oc(c34)c5c67)OC(C)C3OC(c4ccccc4)OC32)C1O` (stereo not shown) [Compound 16], the response vs control in vivo at 40 mg/kg in the data set with P-388 leukemia cells (setting [3]) was found to be 148%. In addition, the LD50 in data set [1] (Preparation Example 2) was not below 40 mg/kg.

`COC1C(O)C(C)OC(OC2C(Oc3cccc4c(OC(=O)CCc5ccc6c(c5)OCO6)c5c(=O)oc6ccc(C)c7c(=O)oc(c34)c5c67)OC(C)C3OC(c4ccccc4)OC32)C1O` (stereo not shown) [Compound 22]: the response vs control in vivo at 20 mg/kg in the data set with P-388 leukemia cells (setting [2]) was found to be 142%. Also, the response vs control in vivo at 40 mg/kg in the data set on P-388 leukemia cells (setting [3]) was 222%. The same compound had a median lethal dose (LD50) in data set [1] (Preparation Example 2) not below 40 mg/kg.

In the case of `COC1C(O)C(C)OC(OC2C(Oc3cccc4c(OC(=O)Cc5ccc6c(c5)OCO6)c5c(=O)oc6ccc(C)c7c(=O)oc(c34)c5c67)OC(C)C3OC(c4ccccc4)OC32)C1O` (stereo not shown) [Compound 29], in the data set with P-388 leukemia cells, the response vs control in vivo at 20 mg/kg turned out to be 201% and the response vs control in vivo at 40 mg/kg was 255%. The same compound had a 50% lethal dose (LD50) in data set [1] (Preparation Example 2) not below 40 mg/kg.

With `COC1C(N)C(C)OC(OC2C(Oc3cccc4c(OC(=O)CCNC=O)c5c(=O)oc6ccc(C)c7c(=O)oc(c34)c5c67)OC(C)C3OC(c4cccc(Br)c4)OC32)C1O` (stereo not shown) [Compound 38], the response vs control in vivo at 80 mg/kg in the data set with P-388 leukemia cells (i.v., 30-day observation) is 133%. Also, the median lethal dose (LD50) in data set [1] (Preparation Example 6) is not below 80 mg/kg.

`COC1C(N)C(C)OC(OC2C(Oc3cccc4c(OC(=O)C(C)CNC(=O)C(F)(F)F)c5c(=O)oc6ccc(C)c7c(=O)oc(c34)c5c67)OC(C)C3OC(c4ccccc4)OC32)C1O` (stereo not shown) [Compound 40]: the response vs control in vivo at 20 mg/kg in the data set with P-388 leukemia cells (setting [2]) amounted to 142%. For the same compound, in the data set on P-388 leukemia cells (setting [3]), the response vs control in vivo at 40 mg/kg worked out at 219%. The 50% lethal dose (LD50) in data set [1] (Preparation Example 1) was not below 40 mg/kg.

For the compound `CCn1cc(C(=O)Oc2c3cccc(OC4OC(C)C5OC(C)(C)OC5C4OC4OC(C)C(O)C(OC)C4O)c3c3oc(=O)c4c(C)ccc5oc(=O)c2c3c54)c(=O)c2ccc(C)nc21` (stereo not shown) [Compound 107], the response vs control in vivo at 80 mg/kg in the data set with P-388 leukemia cells (i.v., 30-day observation) came to 134%. The compound further yielded an LD50 in data set [1] (Preparation Example 4) not below 80 mg/kg.

As to `COC1C(O)C(C)OC(OC2C(Oc3cccc4c(OC(=O)C5CCCN5C(=O)CNC(=O)CNC(=O)OCc5ccccc5)c5c(=O)oc6ccc(C)c7c(=O)oc(c34)c5c67)OC(C)C3OC(c4ccccc4)OC32)C1O` (stereo not shown) [Compound 4], in the data set on P-388 leukemia cells (setting [2]), the response vs control in vivo at 20 mg/kg turned out to be 138%. Besides, the 50% lethal dose (LD50) in data set [1] (Preparation Example 2) was not below 20 mg/kg.

On to `COC1C(O)C(C)OC(OC2C(Oc3cccc4c(OC(=O)C5CCCN(C)C5)c5c(=O)oc6ccc(C)c7c(=O)oc(c34)c5c67)OC(C)C3OC(c4ccccc4)OC32)C1O` (stereo not shown) [Compound 24], for which, in the data set with P-388 leukemia cells (i.v., 30-day observation), the response vs control in vivo at 20 mg/kg/day came to 152% and the response vs control in vivo at 40 mg/kg/day stood at 186%. The same compound displayed an LD50 in data set [1] (Preparation Example 2) not below 40 mg/kg.

Regarding `COC1C(O)C(C)OC(OC2C(Oc3cccc4c(OC(=O)c5ccc6ccccc6n5)c5c(=O)oc6ccc(C)c7c(=O)oc(c34)c5c67)OC(C)C3OC(C)(C)OC32)C1O` (stereo not shown) [Compound 27], in the data set with P-388 leukemia cells (setting [3]), the response vs control in vivo at 40 mg/kg came to 142%. This compound also yielded a median lethal dose (LD50) in data set [1] (Preparation Example 5) not below 80 mg/kg.

In the case of `COC1C(O)C(C)OC(OC2C(Oc3cccc4c(OC(=O)c5ccc6[nH]ccc6c5)c5c(=O)oc6ccc(C)c7c(=O)oc(c34)c5c67)OC(C)C3OC(c4ccccc4)OC32)C1O` (stereo not shown) [Compound 18], the response vs control in vivo at 20 mg/kg in the data set with P-388 leukemia cells (setting [2]) is 167%. Further, the response vs control in vivo at 40 mg/kg in the data set on P-388 leukemia cells (setting [3]) stood at 242%. The LD50 in data set [1] (Preparation Example 2) is not below 40 mg/kg.

For `COC1C(O)C(C)OC(OC2C(Oc3cccc4c(OC(=O)C5CCCN5C(=O)OCc5ccccc5)c5c(=O)oc6ccc(C)c7c(=O)oc(c34)c5c67)OC(C)C3OC(C)(C)OC32)C1O` (stereo not shown) [Compound 3, 6-O-(N-carbobenzyloxy-prolyl)-3',4'-O-isopropylidene-chartreusin], in the data set on P-388 leukemia cells (setting [3]), the response vs control in vivo at 40 mg/kg is 139%. Further, the response vs control in vivo at 80 mg/kg with P-388 leukemia cells (i.v., 30-day observation) worked out at 195%. In addition, the LD50 in data set [1] (Preparation Example 3) is not below 160 mg/kg.

Turning to `COC1C(O)C(C)OC(OC2C(Oc3cccc4c(OC(=O)CCCCC5CCSS5)c5c(=O)oc6ccc(C)c7c(=O)oc(c34)c5c67)OC(C)C3OC(c4ccccc4)OC32)C1O` (stereo not shown) [Compound 15], in the data set with P-388 leukemia cells (setting [2]), the response vs control in vivo at 20 mg/kg turned out to be 153%. For the same compound, the response vs control in vivo at 40 mg/kg with P-388 leukemia cells (setting [3]) is 201%. This compound had a median lethal dose (LD50) in data set [1] (Preparation Example 2) not below 40 mg/kg.

For `COC1C(N)C(C)OC(OC2C(Oc3cccc4c(OC(=O)C5CC5C)c5c(=O)oc6ccc(C)c7c(=O)oc(c34)c5c67)OC(C)C3OC(c4ccccc4)OC32)C1O` (stereo not shown) [Compound 49], the response vs control in vivo at 40 mg/kg/day with P-388 leukemia cells (i.v., 30-day observation) came to 153%. The LD50 in data set [1] (Preparation Example 6) was not below 40 mg/kg.

As for `COC1C(N)C(C)OC(OC2C(Oc3cccc4c(OC(=O)CCNC(=O)CN)c5c(=O)oc6ccc(C)c7c(=O)oc(c34)c5c67)OC(C)C3OC(c4ccccc4)OC32)C1O` (stereo not shown) [Compound 46], in the data set with P-388 leukemia cells (setting [3]), the response vs control in vivo at 40 mg/kg is 148%. For the same compound, in data set [1] (Preparation Example 8), the LD50 was not below 40 mg/kg.

For the compound `CCCCCC(=O)Oc1c2cccc(OC3OC(C)C4OC(c5ccccc5)OC4C3OC3OC(C)C(N)C(OC)C3O)c2c2oc(=O)c3c(C)ccc4oc(=O)c1c2c43` (stereo not shown) [Compound 54], the response vs control in vivo at 20 mg/kg/day in the data set with P-388 leukemia cells (i.v., 30-day observation) was 165%. Also, in data set [1] (Preparation Example 7), the median lethal dose (LD50) is not below 40 mg/kg.

`COC1C(O)C(C)OC(OC2C(Oc3cccc4c(OC(=O)c5ocnc5C)c5c(=O)oc6ccc(C)c7c(=O)oc(c34)c5c67)OC(C)C3OC(c4ccccc4)OC32)C1O` (stereo not shown) [Compound 103]: the response vs control in vivo at 60 mg/kg with P-388 leukemia cells (i.v., dose e: 60 mg/kg/d × 3 (days 1, 5, 9), 30-day observation) came out at 236%. Further, the response vs control in vivo at 30 mg/kg in the data set on P-388 leukemia cells (i.v., dose j: 30 mg/kg/d × 3 (days 1, 5, 9), 30-day observation) came out at 210%. Further, the LD50 in data set [1] (Preparation Example 2) is not below 60 mg/kg.

`COC1C(O)C(C)OC(OC2C(Oc3cccc4c(OC(=O)Cc5cccs5)c5c(=O)oc6ccc(C)c7c(=O)oc(c34)c5c67)OC(C)C3OC(C)(C)OC32)C1O` (stereo not shown) [Compound 13]: in the data set with P-388 leukemia cells (setting [3]), the response vs control in vivo at 40 mg/kg worked out at 134%. The response vs control in vivo at 80 mg/kg in the data set with P-388 leukemia cells (i.v., 30-day observation) was found to be 182%. The compound further showed a 50% lethal dose (LD50) in data set [1] (Preparation Example 3) not below 80 mg/kg.

Consider `COC1C(N)C(C)OC(OC2C(Oc3cccc4c(OC(=O)CCNC=O)c5c(=O)oc6ccc(C)c7c(=O)oc(c34)c5c67)OC(C)C3OC(c4ccccc4)OC32)C1O` (stereo not shown) [Compound 42], for which the response vs control in vivo at 20 mg/kg in the data set on P-388 leukemia cells (setting [2]) is 130%. Besides, the response vs control in vivo at 40 mg/kg in the data set with P-388 leukemia cells (setting [3]) came out at 199%. This compound also returned a median lethal dose (LD50) in data set [1] (Preparation Example 1) not below 40 mg/kg.

Consider `COC1C(O)C(C)OC(OC2C(Oc3cccc4c(OC(=O)c5ccoc5)c5c(=O)oc6ccc(C)c7c(=O)oc(c34)c5c67)OC(C)C3OC(C)(C)OC32)C1O` (stereo not shown) [Compound 7], for which the response vs control in vivo at 40 mg/kg in the data set on P-388 leukemia cells (setting [3]) turned out to be 149%. Moreover, the response vs control in vivo at 80 mg/kg in the data set on P-388 leukemia cells (i.v., 30-day observation) was 194%. The median lethal dose (LD50) in data set [1] (Preparation Example 3) is not below 80 mg/kg.
